From PubChem BioAssay (NCI) come the findings set out here.

Among the test systems are SK-MEL-28 melanoma; MOLT-4 leukemia; IGROV1 ovarian; 786-0 renal; NCI-H226 lung; OVCAR-3 ovarian; CCRF-CEM leukemia; EKVX NSCLC; HCC-2998 colon; HCT-15 colon.
Experiment in all cases: NCI anticancer screen, dose series, 48 h

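Five compound concentrations were applied to cells in 96-well plates for 48 hours; endpoints were derived by simple linear interpolation of the resulting dose-response curve. GI50 marks 50% less growth. TGI: total growth inhibition.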 Some results are limits rather than exact numbers.

Turning to `C[C@H](CCOc1cccc(CC(=O)O)c1)N(Cc1cccc(C(F)(F)F)c1Cl)CC(c1ccccc1)c1ccccc1`, the GI50 with SK-MEL-28 melanoma is 7.3 µM; in the assay with MOLT-4 leukemia, 4.95 µM; with IGROV1 ovarian it was 5.77 µM; in the assay with 786-0 renal, 5.54 µM; in the assay on NCI-H226 lung, 4.49 µM; with OVCAR-3 ovarian, 4.77 µM. For the same compound, the GI50 in the assay with CCRF-CEM leukemia was 3.69 µM; with EKVX NSCLC, 4.04 µM; with HCC-2998 colon it was 5.15 µM; in the assay on HCT-15 colon, 3.25 µM. For the same compound, the TGI in the assay with SK-MEL-28 melanoma is 20.1 µM; in the assay on MOLT-4 leukemia, 23.1 µM; with IGROV1 ovarian, 19.4 µM; in the assay on 786-0 renal, 19.4 µM; in the assay with NCI-H226 lung it was 21.5 µM; with OVCAR-3 ovarian it was 15.9 µM. In addition, the TGI in the assay on CCRF-CEM leukemia was 20.1 µM; with EKVX NSCLC, 19.1 µM; in the assay with HCC-2998 colon, 18 µM; in the assay with HCT-15 colon, 12.3 µM.

Take `CCOC(=O)c1c(C)c2c(n1Cc1ccccc1)CSCC2=O`: the GI50 is 22.2 µM in the assay on SK-MEL-28 melanoma; 12.2 µM with MOLT-4 leukemia; 16.9 µM with IGROV1 ovarian; 24.1 µM in the assay on 786-0 renal; 20.2 µM in the assay on NCI-H226 lung; 17.5 µM with OVCAR-3 ovarian. For the same compound, the GI50 was 29.9 µM with CCRF-CEM leukemia, 16.3 µM in the assay with EKVX NSCLC, 25.4 µM with HCC-2998 colon and 19.7 µM in the assay on HCT-15 colon. Further, the TGI in the assay on SK-MEL-28 melanoma was 55.7 µM; in the assay with MOLT-4 leukemia it was 51.9 µM; in the assay with IGROV1 ovarian it was more than 100 µM; in the assay with 786-0 renal it was 63.1 µM; in the assay on NCI-H226 lung, 89.1 µM; in the assay on OVCAR-3 ovarian, 46.2 µM. Further, the TGI in the assay on CCRF-CEM leukemia, in the assay with EKVX NSCLC, in the assay on HCC-2998 colon and in the assay with HCT-15 colon was more than 100 µM in each case.

With `COc1cc2c(cc1OCCCN1CCN(CCCOc3cc4c(cc3OC)C(=O)N3CC(F)(F)C[C@H]3C=N4)CC1)N=C[C@@H]1CC(F)(F)CN1C2=O`, the GI50 in the assay on SK-MEL-28 melanoma is 4.28 µM; in the assay with MOLT-4 leukemia, 2.02 µM; with IGROV1 ovarian, 1.92 µM; with 786-0 renal, 3.17 µM; in the assay on NCI-H226 lung it was 14 µM; in the assay on OVCAR-3 ovarian, 3.55 µM. The GI50 in the assay on CCRF-CEM leukemia was 0.979 µM; with EKVX NSCLC, 29.1 µM; with HCC-2998 colon, 5.4 µM; in the assay on HCT-15 colon, 16.2 µM. Besides, the TGI is 15.2 µM with SK-MEL-28 melanoma; 8.37 µM in the assay with MOLT-4 leukemia; 5.13 µM in the assay with IGROV1 ovarian; 10.8 µM in the assay on 786-0 renal; 39.8 µM with NCI-H226 lung; 10.6 µM in the assay with OVCAR-3 ovarian. Moreover, the TGI in the assay on CCRF-CEM leukemia is 8.51 µM; in the assay on EKVX NSCLC, more than 100 µM; with HCC-2998 colon it was 19.4 µM; in the assay on HCT-15 colon it was 36.7 µM.

With `O=C1C/C(Br)=C\c2ccccc2-c2ccccc21`, the TGI with SK-MEL-28 melanoma was 2.8 µM; with MOLT-4 leukemia, 7.81 µM; with IGROV1 ovarian, 9.02 µM; in the assay on 786-0 renal it was 2.91 µM; with NCI-H226 lung, 8.22 µM; in the assay on OVCAR-3 ovarian, 7.52 µM. For the same compound, the TGI was 10.4 µM in the assay on CCRF-CEM leukemia, 21.8 µM with EKVX NSCLC, 19.3 µM in the assay with HCC-2998 colon and 3.36 µM in the assay with HCT-15 colon.

Take `CCC(C)(C)n1c(C)nc2c1C(=O)c1ccccc1C2=O`: the TGI in the assay on SK-MEL-28 melanoma, with MOLT-4 leukemia, in the assay with IGROV1 ovarian, with 786-0 renal, in the assay with NCI-H226 lung and in the assay with OVCAR-3 ovarian was more than 100 µM each time. The TGI with CCRF-CEM leukemia, in the assay on EKVX NSCLC, in the assay on HCC-2998 colon and in the assay on HCT-15 colon was more than 100 µM throughout.

On to `NNc1ncnc2nc[nH]c12`, for which the GI50 in the assay with SK-MEL-28 melanoma is 34.6 µM; with MOLT-4 leukemia, 5.31 µM; in the assay on IGROV1 ovarian it was 3.56 µM; with 786-0 renal, 3.03 µM; with NCI-H226 lung, 5.88 µM; in the assay with OVCAR-3 ovarian it was 3.56 µM. The GI50 with CCRF-CEM leukemia is 2.97 µM; with EKVX NSCLC, 7.17 µM; in the assay on HCC-2998 colon, 7.48 µM; in the assay on HCT-15 colon, 4.58 µM. Further, the TGI in the assay on SK-MEL-28 melanoma was more than 100 µM; in the assay on MOLT-4 leukemia, more than 60.1 µM; with IGROV1 ovarian it was more than 55.1 µM; with 786-0 renal, more than 83.8 µM; with NCI-H226 lung it was more than 100 µM; with OVCAR-3 ovarian it was 26.9 µM. Moreover, the TGI in the assay on CCRF-CEM leukemia was more than 100 µM; in the assay on EKVX NSCLC, more than 100 µM; in the assay on HCC-2998 colon, more than 58.1 µM; in the assay with HCT-15 colon, more than 100 µM.

For `COc1ccc(NC(=O)CSc2nnc(-c3ccc(NC(C)=O)cc3)o2)cc1`, the TGI stood at 34.7 µM with SK-MEL-28 melanoma; 40.9 µM with MOLT-4 leukemia; 36.9 µM in the assay with IGROV1 ovarian; 39.1 µM in the assay with 786-0 renal; 57.8 µM with NCI-H226 lung; 35.5 µM with OVCAR-3 ovarian. For the same compound, the TGI is more than 100 µM in the assay on CCRF-CEM leukemia, 43.4 µM with EKVX NSCLC, 35.4 µM in the assay on HCC-2998 colon and 30.2 µM in the assay with HCT-15 colon.

Take `C=CC12CCN(CC1)C(C(O)c1ccnc3ccc(OC)cc13)C2` (stereo not drawn): the GI50 in the assay on SK-MEL-28 melanoma is 79.8 µM; in the assay on MOLT-4 leukemia, more than 100 µM; in the assay with IGROV1 ovarian it was more than 100 µM; with 786-0 renal, more than 100 µM; with NCI-H226 lung it was more than 100 µM; with OVCAR-3 ovarian, more than 100 µM. Moreover, the GI50 was more than 100 µM with CCRF-CEM leukemia, more than 100 µM in the assay on EKVX NSCLC, more than 100 µM in the assay with HCC-2998 colon and 96.2 µM with HCT-15 colon. The TGI with SK-MEL-28 melanoma, in the assay on MOLT-4 leukemia, with IGROV1 ovarian, in the assay with 786-0 renal, with NCI-H226 lung and in the assay with OVCAR-3 ovarian was more than 100 µM throughout. The TGI in the assay on CCRF-CEM leukemia, in the assay with EKVX NSCLC, in the assay on HCC-2998 colon and with HCT-15 colon was more than 100 µM throughout.

As for `O=c1[nH]c(-c2cccc(F)c2)cc2cc(F)ccc12`, the GI50 is 7.5 µM with SK-MEL-28 melanoma; 0.568 µM with MOLT-4 leukemia; 0.822 µM with IGROV1 ovarian; 2.87 µM with 786-0 renal; 0.314 µM in the assay with OVCAR-3 ovarian; 0.369 µM with CCRF-CEM leukemia. Besides, the GI50 is 2.34 µM with EKVX NSCLC, 1.91 µM in the assay on HCC-2998 colon and 0.119 µM in the assay with HCT-15 colon. Moreover, the TGI in the assay with SK-MEL-28 melanoma, in the assay with MOLT-4 leukemia, in the assay with IGROV1 ovarian, with 786-0 renal, in the assay on NCI-H226 lung and with CCRF-CEM leukemia was more than 100 µM in each case. Moreover, the TGI with EKVX NSCLC, in the assay on HCC-2998 colon and with HCT-15 colon was more than 100 µM in each case.
